We go through one compound from publication PMC10289903 (Investigational New Drugs, 2023).

Series [1] in a line: clinical. The settings on record: human, in vivo.
Method: Analyses were performed for the bid dosing schedules and RP2D only.
Water was restricted from 1 h pre-dose until 1 h post-dose, except for the 240 mL of water administered with treatment.
Natural log-transformed AUC and Cmax were compared between fed/fasted conditions using a mixed effects analysis of variance model, which was fitted separately for each assessed dose. Estimates of the mean difference between treatments and corresponding 90% CI were calculated using a linear mixed effects model with a fixed effect for treatment (fed versus fasted) and a random effect for patients. Back transformed geometric means and 95% CIs were estimated for each condition.
Series [2] in a line: clinical. The conditions noted are these: in vivo. The procedure:
Pre-dose samples were also collected on day 5 of treatment cycle 5.
The slope estimate (β) and corresponding 90% confidence interval (CI) were calculated, where a β estimate of 1 with 90% CI entirely within the bounds of 0.8–1.25 indicated perfect dose proportionality.

For `C=CCn1c(=O)c2cnc(Nc3ccc(N4CCN(C)CC4)cc3)nc2n1-c1cccc(C(C)(C)O)n1` [adavosertib, Adavosertib], the highest level in “clinical [1]” (125 mg) (Cmax) was 276 nM. In the series “clinical [1]” (150 mg, Cmax, geometric LS mean (95% CI)), this compound registered a Cmax of 464 nM. For the same compound, in “clinical [2]” (human), the “Dose proportionality power model slope β, AUC0–10” value is on record as 1.31 and the “Dose proportionality power model slope β, Cmax” value amounted to 1.31. The half-life in the series “clinical [2]” (human, po) lay within 5 to 12 h. Besides, the “Dose proportionality of systemic exposure” value in “clinical [2]” was “more than dose proportional”.
